Assay results reported in US20260000079A1, “COMPOSITIONS AND METHODS FOR MODULATING IMMUNITY IN PLANTS” (BOYCE THOMPSON INSTITUTE FOR PLANT RESEARCH, INC., priority 2019, published 2026).

What was measured:
[1] = test system: Arabidopsis root exudates; assay: LC-MS of root exudates of ascr #18-treated Arabidopsis seedlings; format: in vivo, Arabidopsis thaliana; conditions: for secretion of ascr #18 metabolites via roots: ascr #18-treated wildtype, 6 hours treatment
Procedure: (§1) Data are average±SEM (n=6), n.d.=not detected. […] Exudates from approximately 40 seedlings were collected in distilled water and pooled. Abundances of ascarosides are shown as the peak area, as measured by LC-MS. Data are average±SEM (n=3); n.d.=not detected. FIGS. 5C and 5D show the relative abundances of ascarosides in root exudates of eight-day old tomato seedlings treated with 10 nM (FIG. 5C) or 1000 nM (FIG. 5D) ascr #18 for 6 hours. Exudates from approximately 10 seedlings were collected in distilled water and pooled. Abundances of ascarosides are shown as the peak area, as measured by LC-MS. Data are average±SEM (n=3); n.d.=not detected. FIG. 5E provides the relative abundances of ascr #10, ascr #1, and ascr #9 in the growth media of eight-day old tomato seedlings supplemented with 1 μM ascr #18. Ten-gram media samples were collected at different time points over a 48 hour period for metabolome extraction. Abundances of ascarosides are shown as the peak area, as measured by LC-MS.
(§2) To test this possibility, root-secreted metabolites of ascr #18- and mock-treated Arabidopsis were compared (FIG. 5A). For this experiment, 10-day old Arabidopsis seedlings were treated in growth media supplemented with ascr #18 for 6 hours prior to collection of exudates from roots submerged in water. […] Analogous results were obtained in experiments with tomato roots (FIG. 5C, 5D).

[2] = test system: Arabidopsis wildtype and ibr10, ech2, ech2ibr10, or acx1acx5 mutants; format: in vivo, Arabidopsis thaliana; conditions: roots treated with 1 μM ascr #18
Procedure: FIG. 3A provides a comparison of peroxisomal β-oxidation (pβo) pathways and associated enzymes involved in the conversion of indole-3-butyric acid (IBA)-to-indole acetic acid (IAA) in Arabidopsis and ascaroside biosynthesis in C. elegans. FIG. 3B provides LC-MS analysis of Arabidopsis seedlings treated with 1 μM ascr #18 for 24 hours before sample extraction, comparing ascr #9 production in wildtype and ibr10, ech2, ech2ibr10, or acx1acx5 mutants. FIG. 3C provides a comparison of ascaroside abundances in Arabidopsis wildtype and acx1acx5 roots treated with 1 μM ascr #18. Data are averages±SEM (n=5); n.d.=not detected. FIG. 3D provides RNAseq analysis of ten day-old Arabidopsis wildtype and acx1acx5 mutant roots, plotted as transcript abundance. Data are averages±s.d (n=6).
Arabidopsis thaliana mutant genotypes in the Col-0 background, ibr10-1, ech2-1, ibr10-1ech2-1, and acx1-2acx5-1, were obtained from Rice University (Houston, TX) (Strader, et al. (2011) Plant Cell 23:984-999; Adham, et al. (2005) Plant J. 41:859-874).
To test whether ascr #18 is metabolized via pβo in plants, Arabidopsis mutants impaired in key enzymes of this pathway were analyzed (FIG. 3B). […] In contrast, two other putative po genes, ibr10 and ech2, a putative enoyl-CoA hydratases (Strader, et al. (2011) Plant Cell 23:984-999; Adham, et al. (2005) Plant J. 41:859-874; Zolman, et al. (2008) Genetics 180(1): 237-51), are not required for ascr #18 metabolism in Arabidopsis. ACXs participate in the […] step of pβo by introducing α,β-unsaturation in the side-chain (Von Reuss, et al. (2012) J. Am. Chem. Soc. 134:1817-1824; Strader, et al. (2011) Plant Cell 23:984-999). […] These observations indicate that ascr #18 metabolism in plants into shorter-chained ascarosides proceeds via pβo, and that ACX1 and/or ACX5 are strictly required for chain shortening of ascr #10, whereas the first chain-shortening step from ascr #18 to ascr #10 may involve additional acyl-CoA oxidases.

[3] = test system: tomato root exudates; assay: LC-MS of root exudates and growth media of ascr #18-treated tomato seedlings; format: in vivo, Solanum lycopersicum
Procedure: as §1, §2

Structure (SMILES)	secretion of ascr #18 metabolites via roots [1]	ascaroside levels in ascr #18-treated acx1acx5 mutant compared with wildtype [2]	relative abundance among root-excreted ascr #18 metabolites ([1]; Arabidopsis)	ascarosides in root exudates of acx1acx5 ([1]; acx1acx5 seedlings, 10 nM ascr #18 for 6 hours)	relative abundance among root-excreted ascr #18 metabolites [3]
C[C@H](CCCCC(=O)O)O[C@@H]1O[C@@H](C)[C@H](O)C[C@H]1O [ascr #1]	secretion	not detected			
C[C@H](CCCCCCC(=O)O)O[C@@H]1O[C@@H](C)[C@H](O)C[C@H]1O [ascr #10]	secretion	smaller amounts	least abundant	detected	least abundant
